Measurements taken from patent publication US6602664B2 (priority 1998, dated 2003).
pEC50: −log10 of the molar value. “And” between values parts separate entries of the source, which are not always exact repeats. Identical values can stand only once. Like-named read-outs stand apart in the source and are kept apart here.

Legend:
Type in all cases: cell-based
[1] = test system: drug-resistant HIV-1 in PBMC; test: microbe, parasite or virus in culture; conditions: PBMC; for pEC50: Human immunodeficiency virus 1, PBMC
[2] = test system: HIV-1 replication in human PBM cells; test: microbe, parasite or virus in culture
Procedure: Cells and viruses. […] Antimicrobial Agents Chemother 1992;36(11): 2423-2431.
Cell pellets were washed, centrifuged, lysed and the proviral DNA extracted as previously described. Cytotoxicity of the compounds was determined using the Promega Cell Titer 96 dye uptake assay (Madison, Wis.) in 1-2 day PHA-stimulated PBM cells after 5 days in culture. The median effective concentration (EC50) and inhibitory concentration (IC50) were derived from the computer-generated median effect plot of the dose-effect data, as described previously.

[3] = test system: drug-resistant HIV-1 in MT-2; test: microbe, parasite or virus in culture; conditions: for Fold-resistance: MT-2
[4] = test system: drug-resistant HIV-1 in MT-4; test: microbe, parasite or virus in culture
[5] = test system: recombinant HIV-1 virus isolates
Text: The aim of the study was to determine the potency of the inhibitory effect of a new generation of NRTIs on Multi Drug Resistant isolates and to compare it with their effect on wild-type HIV-1 isolates. All recombinant viruses were taken from the VIRCO repository of phenotypically and genotypically characterized virus isolates. Hirsch et al. Antiretroviral Drug Resistance Testing in Adults with HIV Infection. JAMA; 1998: 79(24) 1984-1991. See also Pauwels et al. Comprehensive HIV drug Resistance monitoring using rapid, high-throughput phenotypic and genotypic assays with correlative data analysis. Antiviral Therapy, 1998: 3: 35 Abstract 51.
Phenotypic drug susceptibility determination of recombinant virus isolates is described in Hertogs et al. A Rapid Method for Simultaneous Detection of Phentypic Resistance to Inhibitors of Protease and Reverse Transcriptase in Recombinant HIV-1 Isolates from Patients Treated with Antiretroviral Drugs. Antimicrob. Agents Chemother. 1998; 42(2): 269-276. The basic principle of the Antivirogram® technology is the construction of chimeric HIV-1 strains composed of the protease (PR) and reverse transcriptase (RT) gene sequences which are isolated and amplified from patient viral RNA. Amplicons are subsequently transfected into CD4+T cells together with a standard laboratory isogenic (HXB2) HIV-1 DNA construct from which the PR/RT gene sequences were deleted. After homologous recombination, new viruses whose diversity reflects the original population amplified from the plasma are produced at high level from these cells.
The virus infectivity (CCID50) is determined by an end-point dilution method. The titer is calculated from the degree of infection, measured by the intensity of reporter-gene signal as generated by serial dilutions of the virus shock. The chimeric (clinical isolates and wild-type reference) viruses are then analyzed for their phenotypic sensitivity (i.e. susceptibility) to the different PR and RT-inhibitors in an automated reporter gene-based assay using serial dilutions of the compound. The standardisation of the Antivirogram®n assay allows for simultaneous testing of all clinically approved drugs in one 384-well microtiter plate. The experimental drugs are included in separate plates. Each plate contains multiple replicates of mock-infected wells, virus-infection control wells and blank (medium-only) well. All plates are tested in duplicate. 50% Inhibitory concentrations are calculated based on reporter signals obtained through optical reading of 384-well plates containing serial dilutions of compounds, a normalised quantity of virus and by taking into account all relevant control wells. Approval (or not) is done according to critical ranges and settings as described in the corresponding VIRCO Standard Operating Procedure.
A more detailed description of the protocol is as follows. Samples were stored frozen. […] To confirm the genotypic pattern, genotyping (ABI-sequencing) was performed after recombination and culture of the laboratory strains by analysis of cell viability, calculation of results (dose-response curves, IC50 values), and reporting of data.

[6] = test system: drug-resistant HIV-1 in HeLa HT4-6C; test: microbe, parasite or virus in culture; conditions: for pEC50: Human immunodeficiency virus 1, HeLa
[7] = HIV-1 (A012D:M41L?/D67N/K70R/T215F/K219Q)
[8] = clinical isolate (pre) prior to long-term ZDV monotherapy, row HIV-1 (A012D), read-out: Untreated EC50
[9] = clinical isolate HIV-1 (A012D:M41L?/D67N/K70R/T215F/K219Q), read-out: Selected Varient EC50
[10] = Human immunodeficiency virus 1, PBMC, 144 h

Cc1cn([C@H]2C[C@H](N=[N+]=[N-])[C@@H](CO)O2)c(=O)[nH]c1=O [AZT, 3′-azido-3′-deoxythymidine]
Fold-resistance ([1]; 1 (T215Y/M41L)): 11 | Fold-resistance ([1]; (M184V/T215Y)): 5.8 | Fold-resistance [1, 7]: 240 | Fold-resistance ([1]; HIV-1 (D67N/K70R/T215Y/K219Q)): 9 | Fold-resistance ([1]; HIV-1 (K65R)): 2 | Fold-resistance ([1]; HIV-1 (L74V)): 0.8 | Fold-resistance ([1]; HIV-1 (M184V)): 0.8 | Fold-resistance ([1]; HIV-1 (T215Y)): 2.5 | pEC50 [1, 8]: 9.00 | pEC50 [1, 9]: 6.62 | pEC50 ([1]; molecular clone 1 (T215Y/M41L), read-out: Selected Varient EC50): 7.38 | pEC50 ([1]; molecular clone (M184V/T215Y), read-out: Selected Varient EC50): 7.64 | pEC50 ([1]; molecular clone HIV-1 (D67N/K70R/T215Y/K219Q), read-out: Selected Varient EC50): 7.44 | pEC50 ([1]; molecular clone HIV-1 (K65R), read-out: Selected Varient EC50): 8.10 | pEC50 ([1]; molecular clone HIV-1 (L74V), read-out: Selected Varient EC50): 8.52 | pEC50 ([1]; molecular clone HIV-1 (M184V), read-out: Selected Varient EC50): 8.52 | pEC50 ([1]; molecular clone HIV-1 (T215Y), read-out: Selected Varient EC50): 8.00 | pEC50 ([1]; parent strain HIV-1 (xxLAI), row 1 (T215Y/M41L), read-out: Untreated EC50): 8.40 | pEC50 ([1]; parent strain HIV-1 (xxLAI), row (M184V/T215Y), read-out: Untreated EC50): 8.40 | pEC50 ([1]; parent strain HIV-1 (xxLAI), row HIV-1 (D67N/K70R/T215Y/K219Q), read-out: Untreated EC50): 8.40 | pEC50 ([1]; parent strain HIV-1 (xxLAI), row HIV-1 (K65R), read-out: Untreated EC50): 8.40 | pEC50 ([1]; parent strain HIV-1 (xxLAI), row HIV-1 (L74V), read-out: Untreated EC50): 8.40 | pEC50 ([1]; parent strain HIV-1 (xxLAI), row HIV-1 (M184V), read-out: Untreated EC50): 8.40 | pEC50 ([1]; parent strain HIV-1 (xxLAI), row HIV-1 (T215Y), read-out: Untreated EC50): 8.40 | EC90 [2]: 21 nM and 14 nM | EC90 ([2]; Human immunodeficiency virus 1, PBMC): 13 nM | inhibition at 0.1 µM [2, 10]: -12.9% | inhibition at 1 µM [2, 10]: 67.6% | inhibition at 10 µM [2, 10]: 83.2% | inhibition at 100 µM [2, 10]: 98.2% | Fold-resistance ([3]; HIV-1 (D67N/K70R/M184V/T215Y/K219Q)): 5 | Fold-resistance ([3]; HIV-1 (D67N/K70R/T215Y/K219Q)): 33 | Fold-resistance ([3]; HIV-1 (M41L/D67N/M184V/H208Y/L210W/R211K/L214F/T215Y)): >550 | Fold-resistance ([3]; HlV-1 (M184V)): 1.5 | pEC50 ([3]; Human immunodeficiency virus 1, MT2, read-out: Untreated EC50): 8.22 | Fold-resistance ([4]; HIV-1 (A-161)): 60 | Fold-resistance ([4]; HIV-1 (C-246)): 35 | Fold-resistance ([4]; HIV-1 (G-68)): 33 | Fold-resistance ([4]; HIV-1 (R-102)): 60 | Fold-resistance ([4]; HIV-1 (X-78)): 55 | pEC50 ([4]; Human immunodeficiency virus 1, MT4, clinical isolate (pre) prior to long-term ZDV monotherapy, row HIV-1 (A-161), read-out: Untreated EC50): 7.70 | pEC50 ([4]; Human immunodeficiency virus 1, MT4, clinical isolate (pre) prior to long-term ZDV monotherapy, row HIV-1 (C-246), read-out: Untreated EC50): 7.70 | pEC50 ([4]; Human immunodeficiency virus 1, MT4, clinical isolate (pre) prior to long-term ZDV monotherapy, row HIV-1 (G-68), read-out: Untreated EC50): 7.70 | pEC50 ([4]; Human immunodeficiency virus 1, MT4, clinical isolate (pre) prior to long-term ZDV monotherapy, row HIV-1 (R-102), read-out: Untreated EC50): 7.70 | pEC50 ([4]; Human immunodeficiency virus 1, MT4, clinical isolate (pre) prior to long-term ZDV monotherapy, row HIV-1 (X-78), read-out: Untreated EC50): 7.70 | pEC50 ([4]; Human immunodeficiency virus 1, MT4, clinical isolate HIV-1 (A-161), long-term ZDV monotherapy, read-out: Selected Varient EC50): 5.92 | pEC50 ([4]; Human immunodeficiency virus 1, MT4, clinical isolate HIV-1 (C-246), long-term ZDV monotherapy, read-out: Selected Varient EC50): 6.15 | pEC50 ([4]; Human immunodeficiency virus 1, MT4, clinical isolate HIV-1 (G-68), long-term ZDV monotherapy, read-out: Selected Varient EC50): 6.19 | pEC50 ([4]; Human immunodeficiency virus 1, MT4, clinical isolate HIV-1 (R-102), long-term ZDV monotherapy, read-out: Selected Varient EC50): 5.92 | pEC50 ([4]; Human immunodeficiency virus 1, MT4, clinical isolate HIV-1 (X-78), long-term ZDV monotherapy, read-out: Selected Varient EC50): 5.96 | fold Resistance ([5]; RT genotype D67D/N, K70R, M184V, G333E): 0.9 | fold Resistance ([5]; RT genotype D67N, K70R, K219Q/K, 181C/Y): 12 | fold Resistance ([5]; RT genotype K70R, K219Q): 5 | fold Resistance ([5]; RT genotype M41L, D67N, K70R, K103N, L210W, T215Y, K219N/K): >36 | fold Resistance ([5]; RT genotype M41L, L210L, T215Y, Y181C/Y, M184M/V): >36 | fold Resistance ([5]; RT genotype M41L, L210W, T215Y): 24 | fold Resistance ([5]; RT genotype M41L, T69S-V-T, L210W, T215Y, G333E): >65 | fold Resistance ([5]; RT genotype M41L, T215Y, M184V): 5.5 | fold Resistance ([5]; RT genotype T69G, Q151M, M184V/M): >65 | fold Resistance ([5]; RT genotype T69I, K70R, Q151M, M184V): >65 | fold Resistance ([5]; RT genotype T69S-E, M184I, T215Y): >65 | fold Resistance ([5]; RT genotype T215Y): 13.5 | fold Resistance ([5]; recombinant isolate, RT genotype K70R): 0.7 | Fold-resistance [6, 7]: 200 | Fold-resistance ([6]; HIV-1 (A018C:D67N/K70R/T215Y/K219Q)): 400 | Fold-resistance ([6]; HIV-1 (A036DD:M41L/D67N/K70R/T215Y)): 800 | Fold-resistance ([6]; HIV-1 (P022C:M41L?/D67N/K70R/T215F/K219Q)): 187 | Fold-resistance ([6]; HIV-1 (P026B:M41L?/D67N/K70R/T215Y)): 280 | pEC50 [6, 8]: 8.00 | pEC50 ([6]; clinical isolate (pre) prior to long-term ZDV monotherapy, row HIV-1 (A018C), read-out: Untreated EC50): 8.00 | pEC50 ([6]; clinical isolate (pre) prior to long-term ZDV monotherapy, row HIV-1 (A036DD), read-out: Untreated EC50): 8.15 | pEC50 ([6]; clinical isolate (pre) prior to long-term ZDV monotherapy, row HIV-1 (P022C), read-out: Untreated EC50): 7.52 | pEC50 ([6]; clinical isolate (pre) prior to long-term ZDV monotherapy, row HIV-1 (P026B), read-out: Untreated EC50): 8.00 | pEC50 [6, 9]: 5.70 | pEC50 ([6]; clinical isolate HIV-1 (A018C:D67N/K70R/T215Y/K219Q), read-out: Selected Varient EC50): 5.40 | pEC50 ([6]; clinical isolate HIV-1 (A036DD:M41L/D67N/K70R/T215Y), read-out: Selected Varient EC50): 5.26 | pEC50 ([6]; clinical isolate HIV-1 (P022C:M41L?/D67N/K70R/T215F/K219Q), read-out: Selected Varient EC50): 5.25 | pEC50 ([6]; clinical isolate HIV-1 (P026B:M41L?/D67N/K70R/T215Y), read-out: Selected Varient EC50): 5.55
